Source: paper PMC12582985, “Preparation and characterization of renal cell peptides from fetal rats for their antitumor activity” (FEBS Open Bio, 2025)

Legend:
[1] = Solubility of the synthesized peptides; type: physicochemical; conditions: for Solubility: solvent given for the synthesized peptide (GenScript); for aqueous solubility: in words
SGC‐7901 cells = test: CCK‐8 cell viability assay, SGC‐7901; type: cell-based, human; conditions: CCK‐8, 48 h, triplicate; peptides 5–45 μg·mL^−1; 5‐FU positive control 0.1–5 mM; vs negative control
From the text: (§1) Human breast cancer MCF‐7 (RRID:CVCL_0031), human lung cancer A549 (RRID:CVCL_0023), human colon cancer HCT‐116 (RRID:CVCL_0291), human cervical cancer Hela (RRID:CVCL_0030), human hepatoma HepG2 (RRID:CVCL_0027), human gastric cancer SGC‐7901 (RRID:CVCL_0520) and human non‐tumor mamma gland epithelial MCF‐10A (RRID:CVCL_0598) and transformed human liver epithelial‐2 (THLE‐2) (RRID:CVCL_3803) cells were obtained from Shanghai Donghuan Biotechnology (Shanghai, China). All cell lines had been authenticated in the past 3 years and again within 4 months after completion of the experiments. All cell lines had been tested for mycoplasma contamination frequently. Their identities were characterized by short tandem repeat analysis. All of these cell lines were cultured in high glucose Dulbecco's modified Eagle's medium supplemented by 10% fetal bovine serum, 100 units·mL^−1 penicillin and 100 μg·mL^−1 streptomycin (complete culture medium).
(§2) MCF‐7 cells (1 × 10^4 cells per well) were treated in triplicate with different doses of each type of RC extract in 96‐well plates for varying time periods. The negative control cells were treated with the diluent of physiological saline, whereas positive control cells were treated with different concentrations (0.1–5 mM) of 5‐fluorouracil (5‐FU) (Leica, Wetzlar, Germany). During the last hour of culture, each well of cells was treated with 10 μL of CCK‐8 solution. The absorbance of the supernatants of individual wells was measured at 450 nm using a microplate reader. Similarly, the effect of different synthesized RCPs (5–45 μg·mL^−1) on the viability of different types of human cancer cells was tested with CCK‐8 assays using the diluent of physiological saline containing the same concentration of dimethylsulfoxide as a negative control and the same concentrations of 5‐FU as the positive controls. Ten RCPs with a predicted strong bioactivity were synthesized by GenScript ([…]) and their purity, sequences and solubility are shown in Table 1. […] The formula used to calculate the cytotoxicity rate of each concentration of RCP was: Cytotoxicity rate (%) = (absorbance value of the control group − absorbance value of the experimental group)/absorbance value of the control group × 100%. In addition, MCF‐7 cells were treated with each type of RCP at 45 μg·mL^−1 for 12–72 h and the dynamic impact of RCP treatment on the viability of MCF‐7 cells was determined every 12 h using CCK‐8 assays.
(§3) Data are expressed as the mean ± SEM. The data distribution was analyzed by Shapiro–Wilk test. The IC50 values of each peptide for individual cell lines were determined using the PRISM, version 8 (GraphPad Software Inc.). Briefly, all dose–response data were converted into […], which were automatically analyzed by PRISM for non‐linear regression to determine and report the IC50 and its SD for each peptide in a specific cell line. The difference among groups was analyzed by analysis of variance and post‐hoc Tukey's tests and the comparison between groups was performed using Student's t‐test and PRISM, version 8 (GraphPad Software Inc.). P < 0.05 was considered statistically significant.

HepG2 cells = test: CCK‐8 cell viability assay, HepG2; type: cell-based, human; conditions: CCK‐8, 48 h, triplicate; peptides 5–45 μg·mL^−1; 5‐FU positive control 0.1–5 mM; vs negative control
From the text: as §1, §2, §3

A549 cells = test: CCK‐8 cell viability assay, A549; type: cell-based, human; conditions: CCK‐8, 48 h, triplicate; peptides 5–45 μg·mL^−1; 5‐FU positive control 0.1–5 mM; vs negative control
From the text: as §1, §2, §3

Hela cells = test: CCK‐8 cell viability assay, Hela; type: cell-based, human; conditions: CCK‐8, 48 h, triplicate; peptides 5–45 μg·mL^−1; 5‐FU positive control 0.1–5 mM; vs negative control
From the text: as §1, §2, §3

MCF‐10A cells = test: CCK‐8 cell viability assay, non‐tumor MCF‐10A; type: cell-based, human; conditions: CCK‐8, 48 h, triplicate; peptides 5–45 μg·mL^−1; 5‐FU positive control 0.1–5 mM; vs negative control
From the text: as §1, §2, §3

THLE‐2 cells = test: CCK‐8 cell viability assay, non‐tumor THLE‐2; type: cell-based, human; conditions: CCK‐8, 48 h, triplicate; peptides 5–45 μg·mL^−1; 5‐FU positive control 0.1–5 mM; vs negative control
From the text: as §1, §2, §3

HCT‐116 cells = test: CCK‐8 cell viability assay, HCT‐116; type: cell-based, human; conditions: CCK‐8, 48 h, triplicate; peptides 5–45 μg·mL^−1; 5‐FU positive control 0.1–5 mM; vs negative control
From the text: as §1, §2, §3

MCF‐7 cells = test: CCK‐8 cell viability assay, MCF‐7; type: cell-based, human; conditions: for dynamic cytotoxicity against MCF‐7 cells: 45 μg·mL^−1, 12–72 h, CCK‐8 every 12 h, maintained at highest levels to 72 h
From the text: as §1, §2, §3

[2] = test system: cancer cells (MCF‐7, A549, HCT‐116, Hela, HepG2, SGC‐7901) vs non‐tumor MCF‐10A and THLE‐2 cells; test: CCK‐8 cytotoxicity, preference for cancer cells over non‐tumor cells; type: cell-based, human; design: cytotoxicity against non‐tumor MCF‐10A and THLE‐2 cells compared with tumor cell lines: dose or concentration left out as unconfirmed; conditions: for preference of cytotoxicity for cancer cells over non‐tumor cells: 5–45 μg·mL^−1, 48 h, CCK‐8; for cytotoxicity against non‐tumor MCF‐10A and THLE‐2 cells compared with tumor cell lines: 48 h, P < 0.05 or P < 0.01
From the text: as §1, §2, §3

[3] = CCK‐8, 48 h, triplicate, peptides 5–45 μg·mL^−1, 5‐FU positive control 0.1–5 mM, vs negative control

| Molecule | Solubility [1] | aqueous solubility [1] | viability of SGC‐7901 cells (SGC‐7901 cells) | viability of HepG2 cells (HepG2 cells) | viability of A549 cells (A549 cells) | viability of Hela cells (Hela cells) | viability of non‐tumor MCF‐10A cells (MCF‐10A cells) | viability of non‐tumor THLE‐2 cells (THLE‐2 cells) | viability of HCT‐116 cells (HCT‐116 cells) | viability of MCF‐7 cells (MCF‐7 cells; [3]) | preference of cytotoxicity for cancer cells over non‐tumor cells [2] | dynamic cytotoxicity against MCF‐7 cells (MCF‐7 cells) | cytotoxicity against non‐tumor MCF‐10A and THLE‐2 cells compared with tumor cell lines [2] | viability of MCF‐7 cells (MCF‐7 cells; RC extract experiment, positive control 0.1–5 mM, dose‐dependent, P < 0.01) |
| --- | --- | --- | --- | --- | --- | --- | --- | --- | --- | --- | --- | --- | --- | --- |
| PAPPKPEPK [RCP‐9, synthesized 9‐mer renal cell peptide from Non‐histone chromosomal protein HMG‐17, trypsin digested] | Water, pH 7.0 | – | decreased the viability | decreased the viability | decreased the viability | decreased the viability | decreased the viability | decreased the viability | decreased the viability | decreased the viability | did not preferably decrease the viability of tumor cells | – | – | – |
| GIYAPDSPRAF [RCP‐8, synthesized 11‐mer renal cell peptide from Vanin 1, protamex‐digested] | 0.1% Dimethylsulfoxide | – | decreased the viability | decreased the viability | decreased the viability | decreased the viability | decreased the viability | decreased the viability | decreased the viability | decreased the viability | did not preferably decrease the viability of tumor cells | – | – | – |
| QQHMKFGKKCWRKVWALLYA [RCP‐1, synthesized 20‐mer renal cell peptide from Docking protein 3, trypsin digested] | 0.1% Dimethylsulfoxide | low aqueous solubility | significantly decreased the viability | significantly decreased the viability | significantly decreased the viability | significantly decreased the viability | only treatment with the highest doses of them slightly reduced the viability | only treatment with the highest doses of them slightly reduced the viability | significantly decreased the viability | significantly decreased the viability | potent cytotoxicity preferably against cancer cells | increased with time from 12 h post treatment to 48 h | statistically lower than tumor cell lines | – |
| O=c1[nH]cc(F)c(=O)[nH]1 [5‐FU, 5‐fluorouracil, reference compound] | – | – | significantly decreased the viability | significantly decreased the viability | significantly decreased the viability | significantly decreased the viability | significantly decreased the viability | significantly decreased the viability | significantly decreased the viability | significantly decreased the viability | – | – | – | significantly reduced the viability |

Continued, in another order:

| Solubility [1] | aqueous solubility [1] | Molecule | viability of SGC‐7901 cells (SGC‐7901 cells) | viability of HepG2 cells (HepG2 cells) | viability of A549 cells (A549 cells) | viability of Hela cells (Hela cells) | viability of non‐tumor MCF‐10A cells (MCF‐10A cells) | viability of non‐tumor THLE‐2 cells (THLE‐2 cells) | viability of HCT‐116 cells (HCT‐116 cells) | viability of MCF‐7 cells (MCF‐7 cells; [3]) | preference of cytotoxicity for cancer cells over non‐tumor cells [2] | dynamic cytotoxicity against MCF‐7 cells (MCF‐7 cells) | cytotoxicity against non‐tumor MCF‐10A and THLE‐2 cells compared with tumor cell lines [2] | viability of MCF‐7 cells (MCF‐7 cells; RC extract experiment, positive control 0.1–5 mM, dose‐dependent, P < 0.01) |
| --- | --- | --- | --- | --- | --- | --- | --- | --- | --- | --- | --- | --- | --- | --- |
| 0.1% Dimethylsulfoxide | low aqueous solubility | VCMRVCRTWSRWCYDKRLWP [RCP‐5, synthesized 20‐mer renal cell peptide from F‐box and leucine‐rich repeat protein 19, trypsin digested] | significantly decreased the viability | significantly decreased the viability | significantly decreased the viability | significantly decreased the viability | only treatment with the highest doses of them slightly reduced the viability | only treatment with the highest doses of them slightly reduced the viability | significantly decreased the viability | significantly decreased the viability | potent cytotoxicity preferably against cancer cells | increased with time from 12 h post treatment to 48 h | statistically lower than tumor cell lines | – |
| Water, pH 7.0 | – | IYAPDSPRAF [RCP‐10, synthesized 10‐mer renal cell peptide from Vanin 1, protamex‐digested] | decreased the viability | decreased the viability | decreased the viability | decreased the viability | decreased the viability | decreased the viability | decreased the viability | decreased the viability | did not preferably decrease the viability of tumor cells | – | – | – |
| Water, pH 7.0 | – | SSGCPPLPPRRGAPAGWLSH [RCP‐2, synthesized 20‐mer renal cell peptide from Brain‐derived neurotrophic factor, trypsin digested] | decreased the viability | decreased the viability | decreased the viability | decreased the viability | decreased the viability | decreased the viability | decreased the viability | decreased the viability | did not preferably decrease the viability of tumor cells | – | – | – |
| Water, pH 7.0 | – | FAGDDAPR [RCP‐4, synthesized 8‐mer renal cell peptide from Actin, cytoplasmic 2, trypsin digested] | decreased the viability | decreased the viability | decreased the viability | decreased the viability | decreased the viability | decreased the viability | decreased the viability | decreased the viability | did not preferably decrease the viability of tumor cells | – | – | – |
